Like-named read-outs stand apart in the source and are kept apart here. Residues, ends and D or L forms follow the SMILES beside them.
Columns and labels:
[1] = tested on: twelve prevalent HLA-A allotypes; assay: Peptide competitive binding assay, whole panel; parameters: species or system human; details: high = IC50<5μM
Method: A set of fluoresce-labeled reference peptides (positive-control peptide) were synthesized with a purity of >99% by Sangon Biotech and stored at 4°C, such as FLPSDK(FITC)FPSV for A0201, A0203 and A0206 ([30]), YVNVNK(FITC)GLK for A1101 and A3303 ([31]), EYLVSK(FITC)GVW for A2402 ([32]), ATFQFK(FITC)VER for A3101, A1102 and A0301 ([33]), KLPDDFK(FITC)GCV for A0207 ([34]), YLEPAK(FITC)AKY for A0101 ([30]), and ASRELK(FITC)VSY for A3001 (identified in house). Then the competitive peptide binding assay was performed as described with minor modifications ([30], [35]). Briefly, the HMy2.CIR cell lines expressing the indicated HLA-A molecule were washed with acid buffer (0.131M citric acid and 0.061M sodium phosphate Na2HPO4, PH3.3, 0.22 μm filtered) for 1 min, and immediately neutralized by IMDM medium containing 0.5% BSA. After washing, the cells were seeded into 96-well U culture plate (1×10^5 cells/100 μL/well) with β2-m (1 μg/mL). […] In parallel, no peptide control well (cells alone) and positive control well (cells with FITC-labeled reference peptide) were also performed.
The plate was centrifuged at 600 rpm for 5 min at room temperature (RT). Cells were washed twice with 100 μL cold 0.5% BSA-PBS. Finally, cells were resuspended with 150 μL PBS and analyzed with flow cytometry. Sample % is the percentage of FITC^+ cells in the experiment well, while the background % is the percentage of FITC^+ cells in the no peptide control well, and the max % is the percentage of FITC^+ cells in the positive control well. Competitive binding (%) = [1-(sample % - background %)/(max % – background %)] × 100%. […] Binding affinity of unlabeled peptide with the indicated HLA-A molecule is assessed by IC50.
Subsequently, the unlabeled epitope peptides of HBV competed with fluorescently labeled reference peptides in the binding with HLA-A molecules onto transfected cell lines for 24 hours. Here, twelve prevalent HLA-A allotypes were tested with totally 62 HBV epitope peptides validated in house.

HLA-A2402 = HLA-A2402 (Homo sapiens, UniProt P04439, D101N/D140Y/D185E/E176V/E190D/F33S/G103R/G107R/I119L/I121M/I306V/K335N/L105A/L180Q/L300P/N151K/N90K/Q86E/Q94H/R106L/R138H/R89G/T104I/T345S/V100E/W191G/Y123F); assay: cell-based; type: binding; details: for inhibition at 5 µM / inhibition at 15 µM: HLA-A2402 HMy2.CIR cells, 24 hours, flow cytometry; for inhibition at 5 µM: competitor peptide 5μM; for inhibition at 15 µM: competitor peptide 15μM
Outline: (§1)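 HMy2.CIR cells stably transfected with the HLA-A allele, acid-stripped (citrate/phosphate, pH3.3), neutralised and plated with β2-m (1 μg/mL); unlabeled peptide competes with the allele's FITC reference peptide. FITC+ cells read by flow cytometry; competitive binding % normalised to no-peptide and reference-only wells; IC50 reported.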

HLA-A0201 = target: T1, HLA-A0201 (Homo sapiens, UniProt P04439, D140Y/D185E/D98H/E176V/E277Q/G131W/G231S/I119V/I121R/I166T/I218V/L300P/L318F/N151K/N90K/P208A/P217A/Q86G/Q94H/R138H/R169H/T345S); assay: cell-based; type: binding; details: for inhibition at 5 µM / inhibition at 15 µM: HLA-A0201 HMy2.CIR cells, 24 hours, flow cytometry; for inhibition at 5 µM: competitor peptide 5μM, read-out: 5μM Inhibition (%); for inhibition at 15 µM: competitor peptide 15μM, read-out: 15μM Inhibition (%)
T1 construct: expressed in transfected cells; host or cells: HMy2.CIR
Outline: as §1

HLA-A3303 = target: T2, HLA-A3303 (Homo sapiens, UniProt P04439, A270S/D185E/E176V/E277Q/E87N/F33T/G231S/H175R/I121M/I218V/I322F/K168Q/L300P/L318F/M331R/P217A/Q86R/Q94H/R138Q/T323A/T345S/T97I/V358M); assay: cell-based; type: binding; details: for inhibition at 5 µM / inhibition at 15 µM: HLA-A3303 HMy2.CIR cells, 24 hours, flow cytometry; for inhibition at 5 µM: competitor peptide 5μM, read-out: 5μM Inhibition (%); for inhibition at 15 µM: competitor peptide 15μM, read-out: 15μM Inhibition (%)
T2 construct: expressed in transfected cells; host or cells: HMy2.CIR
Outline: as §1

HLA-A0207 = target: T3, HLA-A0207 (Homo sapiens, UniProt P04439, D140Y/D185E/D98H/E176V/E277Q/G131W/G231S/I119V/I121R/I166T/I218V/L300P/L318F/N151K/N90K/P208A/P217A/Q86G/Q94H/R138H/R169H/T345S/Y123C); assay: cell-based; type: binding; details: for inhibition at 5 µM: read-out: 5μM Inhibition (%); for inhibition at 15 µM: read-out: 15μM Inhibition (%)
T3 construct: expressed in transfected cells; host or cells: HMy2.CIR
Outline: as §1

HLA-A1101 = target: T4, HLA-A1101 (Homo sapiens, UniProt P04439, A114D/D185E/E176A/F33Y/L180Q/S129P/T187R); assay: cell-based; type: binding; details: for inhibition at 5 µM: read-out: 5μM Inhibition (%); for inhibition at 15 µM: read-out: 15μM Inhibition (%)
T4 construct: expressed in transfected cells; host or cells: HMy2.CIR
Outline: as §1

HLA-A0203 = target: T5, HLA-A0203 (Homo sapiens, UniProt P04439, A173T/D140Y/D185E/D98H/E277Q/G131W/G231S/I119V/I121R/I166T/I218V/L180W/L300P/L318F/N151K/N90K/P208A/P217A/Q86G/Q94H/R138H/R169H/T345S); assay: cell-based; type: binding; details: for inhibition at 5 µM / inhibition at 15 µM: HLA-A0203 HMy2.CIR cells, 24 hours, flow cytometry; for inhibition at 5 µM: competitor peptide 5μM; for inhibition at 15 µM: competitor peptide 15μM
T5 construct: expressed in transfected cells; host or cells: HMy2.CIR
Outline: as §1

HLA-A0206 = target: T6, HLA-A0206 (Homo sapiens, UniProt P04439, D140Y/D185E/D98H/E176V/E277Q/F33Y/G131W/G231S/I119V/I121R/I166T/I218V/L300P/L318F/N151K/N90K/P208A/P217A/Q86G/Q94H/R138H/R169H/T345S); assay: cell-based; type: binding; details: HLA-A0206 HMy2.CIR cells, 24 hours, flow cytometry; for inhibition at 5 µM: competitor peptide 5μM, read-out: 5μM Inhibition (%); for inhibition at 15 µM: competitor peptide 15μM, read-out: 15μM Inhibition (%)
T6 construct: expressed in transfected cells; host or cells: HMy2.CIR
Outline: as §1

[2] = HLA-A0207 HMy2.CIR cells, competitor peptide 5μM, 24 hours, flow cytometry
[3] = HLA-A0207 HMy2.CIR cells, competitor peptide 15μM, 24 hours, flow cytometry
[4] = HLA-A1101 HMy2.CIR cells, competitor peptide 5μM, 24 hours, flow cytometry
[5] = HLA-A1101 HMy2.CIR cells, competitor peptide 15μM, 24 hours, flow cytometry

Row | Structure (SMILES) | number of HLA-A allotypes bound with high affinity [1] | inhibition at 5 µM (HLA-A2402) [%] | inhibition at 15 µM (HLA-A2402) [%] | IC50 (HLA-A0201) [µM] | inhibition at 5 µM (HLA-A0201) [%] | inhibition at 15 µM (HLA-A0201) [%] | IC50 (HLA-A3303) [µM] | inhibition at 5 µM (HLA-A3303) [%] | inhibition at 15 µM (HLA-A3303) [%] | inhibition at 5 µM (HLA-A0207; [2]) [%] | inhibition at 15 µM (HLA-A0207; [3]) [%] | inhibition at 5 µM (HLA-A1101; [4]) [%] | inhibition at 15 µM (HLA-A1101; [5]) [%] | inhibition at 5 µM (HLA-A0203) [%] | inhibition at 15 µM (HLA-A0203) [%] | inhibition at 5 µM (HLA-A0206) [%] | inhibition at 15 µM (HLA-A0206) [%] | inhibition at 5 µM (HLA-A1101; 24 h) [%] | inhibition at 15 µM (HLA-A1101; 24 h) [%] | also measured
1 | CC(C)C[C@H](NC(=O)[C@@H](N)Cc1ccccc1)C(=O)N[C@@H](Cc1c[nH]c2ccccc12)C(=O)N[C@@H](CCC(=O)O)C(=O)N[C@@H](Cc1c[nH]c2ccccc12)C(=O)N[C@@H](C)C(=O)N[C@@H](CO)C(=O)N[C@H](C(=O)N[C@@H](CCCNC(=N)N)C(=O)O)C(C)C [Epitope P78] (H-FLWEWASVR-OH; N-terminus and C-terminus assumed) | two | 1 | 9.1 | < 5 | 79.7 | 97.3 | < 5 | 72.1 | 89.6 | – | – | – | – | – | – | – | – | – | – | IC50 (HLA-A2402): > 15 µM
2 | CC(C)C[C@H](NC(=O)[C@H](CO)NC(=O)[C@H](CC(C)C)NC(=O)[C@@H](N)Cc1c[nH]c2ccccc12)C(=O)N[C@@H](CC(C)C)C(=O)N[C@H](C(=O)N1CCC[C@H]1C(=O)N[C@@H](Cc1ccccc1)C(=O)N[C@H](C(=O)O)C(C)C)C(C)C [Epitope P7] | three | 0 | 0 | – | 83 | 96.4 | – | – | – | 38 | 25 | 5.5 | 3.11 | 96.3 | 98.7 | 82.9 | 96.2 | – | – | –
3 | CC[C@H](C)[C@H](NC(=O)[C@H](CO)NC(=O)[C@@H]1CCCN1C(=O)[C@H](Cc1ccccc1)NC(=O)[C@H](Cc1ccccc1)NC(=O)[C@H](CC(=O)O)NC(=O)[C@H](CO)NC(=O)[C@@H]1CCCN1C(=O)[C@H](CC(C)C)NC(=O)[C@@H](N)Cc1ccccc1)C(=O)O [Epitope P31] | three | 70.6 | 86.1 | – | 79 | 90.4 | – | – | – | – | – | – | – | 86.3 | 90.9 | – | – | 8.5 | 9.5 | inhibition at 5 µM (HLA-A0207; 24 h): 47%; inhibition at 15 µM (HLA-A0207; 24 h): 45%
4 | CC[C@H](C)[C@H](NC(=O)CNC(=O)[C@H](CC(C)C)NC(=O)[C@H](CO)NC(=O)[C@H](CC(C)C)NC(=O)[C@H](CC(C)C)NC(=O)[C@@H](N)Cc1ccccc1)C(=O)N[C@@H](Cc1c[nH]cn1)C(=O)N[C@@H](CC(C)C)C(=O)O [Epitope P10] | two | 19 | 17 | – | 81.7 | 71.6 | – | 60.1 | 66.1 | 27 | 31 | 7.2 | 8 | – | – | 21.5 | 43.2 | – | – | –
5 | CC[C@H](C)[C@H](NC(=O)[C@H](Cc1c[nH]c2ccccc12)NC(=O)[C@@H](NC(=O)CNC(=O)[C@H](Cc1ccccc1)NC(=O)[C@H](CO)NC(=O)[C@@H](NC(=O)[C@H](CC(C)C)NC(=O)[C@@H](N)Cc1ccc(O)cc1)C(C)C)C(C)C)C(=O)O [Epitope P11] | two | 41 | 52.5 | < 5 | 81.2 | 96.2 | > 15 | 10.2 | 4.63 | – | – | – | – | 89.4 | 97.4 | – | – | 17.1 | 20 | Affinity (HLA-A2402): inter; IC50 (HLA-A1101): > 15 µM; IC50 (HLA-A0203): < 5 µM

Source: PMC9021956, “Screening and Identification of HBV Epitopes Restricted by Multiple Prevalent HLA-A Allotypes” (Frontiers in Immunology, 2022)
